Experimental data from ChEMBL document CHEMBL4334456, “Moscatilin Ameliorates Tau Phosphorylation and Cognitive Deficits in Alzheimer's Disease Models” (J Nat Prod, 2019).
Calls of active or inactive are those of the source. The rule behind the calls is not given here.

Columns and labels:
[1] = target: Glycogen synthase kinase-3 beta (Mus musculus) (UniProt Q9WV60); experiment: Inhibition of GSK-3beta in mouse Neuro2a cells harboring with pCAX/FLAG-tagged APP and pRK5/EGFP-tagged Tau P301L mutant at 0.1 to 10 uM assessed as reduction in GSK-3beta phosphorylation at Tyr216 residues after 24 hrs by Western blot analysis; type: cell-based
Glycogen synthase kinase-3 beta (Mus musculus), sequence (Q9WV60 whole entry, looked up): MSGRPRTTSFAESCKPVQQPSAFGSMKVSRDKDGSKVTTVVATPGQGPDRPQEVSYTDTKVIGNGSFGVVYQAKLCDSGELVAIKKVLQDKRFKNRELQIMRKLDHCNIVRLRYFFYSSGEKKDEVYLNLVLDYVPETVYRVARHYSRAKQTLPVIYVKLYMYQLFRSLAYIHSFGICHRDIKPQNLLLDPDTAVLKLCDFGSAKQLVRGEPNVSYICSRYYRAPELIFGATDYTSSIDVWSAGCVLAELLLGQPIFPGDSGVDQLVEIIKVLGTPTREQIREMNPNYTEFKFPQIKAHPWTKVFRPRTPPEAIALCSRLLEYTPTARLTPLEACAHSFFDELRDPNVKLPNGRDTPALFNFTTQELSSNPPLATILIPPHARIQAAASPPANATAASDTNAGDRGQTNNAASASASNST

[2] = target: Glycogen synthase kinase-3 beta (Homo sapiens) (UniProt P49841); experiment: Inhibition of GSK-3beta in human SH-SY5Y cells assessed as reduction in GSK-3beta phosphorylation at Tyr216 residues at 0.1 to 5 uM pretreated for 24 hrs followed by OA addition and measured after 6 hrs by Western blot analysis; type: cell-based
Glycogen synthase kinase-3 beta (Homo sapiens), sequence (P49841 whole entry, looked up): as the sequence (Q9WV60 whole entry, looked up) above, with P390T, A392T, T400A, A402T counted along it

N2a [3] = experiment: Cytotoxicity against mouse Neuro2a cells assessed as reduction in cell viability after 12 hrs by MTT assay; type: cell-based
N2a [4] = experiment: Cytotoxicity against mouse Neuro2a cells assessed as reduction in cell viability after 24 hrs by MTT assay; type: cell-based
SH-SY5Y [5] = experiment: Cytotoxicity against human SH-SY5Y cells assessed as reduction in cell viability after 12 hrs by MTT assay; type: cell-based
SH-SY5Y [6] = experiment: Cytotoxicity against human SH-SY5Y cells assessed as reduction in cell viability after 24 hrs by MTT assay; type: cell-based
[7] = target: Glycogen synthase kinase-3 beta (Mus musculus) (UniProt Q9WV60); experiment: Inhibition of GSK-3beta in mouse Neuro2a cells harboring with pCAX/FLAG-tagged APP and pRK5/EGFP-tagged Tau P301L mutant assessed as reduction in tau phosphorylation at S396 residues after 12 to 24 hrs by Western blot analysis; type: cell-based
[8] = target: Glycogen synthase kinase-3 beta (Mus musculus) (UniProt Q9WV60); experiment: Inhibition of GSK-3beta in mouse Neuro2a cells harboring with pCAX/FLAG-tagged APP and pRK5/EGFP-tagged Tau P301L mutant assessed as reduction in tau phosphorylation at S404 residues after 12 to 24 hrs by Western blot analysis; type: cell-based
[9] = target: Glycogen synthase kinase-3 beta (Homo sapiens) (UniProt P49841); experiment: Inhibition of GSK-3beta in human SH-SY5Y cells harboring with pCAX/FLAG-tagged APP and pRK5/EGFP-tagged Tau P301L mutant assessed as reduction in tau phosphorylation at S396 residues after 12 to 24 hrs by Western blot analysis; type: cell-based
[10] = target: Glycogen synthase kinase-3 beta (Homo sapiens) (UniProt P49841); experiment: Inhibition of GSK-3beta in human SH-SY5Y cells harboring with pCAX/FLAG-tagged APP and pRK5/EGFP-tagged Tau P301L mutant assessed as reduction in tau phosphorylation at S404 residues after 12 to 24 hrs by Western blot analysis; type: cell-based
N2a [11] = experiment: Effect on total tau protein level in mouse Neuro2a cells harboring with pCAX/FLAG-tagged APP and pRK5/EGFP-tagged Tau P301L mutant at 0.1 to 10 uM after 12 to 24 hrs by Western blot analysis; type: ADME, cell-based
SH-SY5Y [12] = experiment: Effect on total tau protein level in human SH-SY5Y cells harboring with pCAX/FLAG-tagged APP and pRK5/EGFP-tagged Tau P301L mutant at 0.1 to 10 uM after 12 to 24 hrs by Western blot analysis; type: ADME, cell-based
[13] = target: Glycogen synthase kinase-3 beta (Mus musculus) (UniProt Q9WV60); experiment: Inhibition of GSK-3beta in mouse Neuro2a cells harboring with pCAX/FLAG-tagged APP and pRK5/EGFP-tagged Tau P301L mutant at 0.1 to 10 uM assessed as increase in GSK-3beta phosphorylation at Ser9 residues after 24 hrs by Western blot analysis; type: cell-based
[14] = target: Glycogen synthase kinase-3 beta (Mus musculus) (UniProt Q9WV60); experiment: Inhibition of GSK3beta in mouse Neuro2a cells assessed as reduction in tau phosphorylation at S202/T205 residues at 0.1 to 5 uM pretreated for 12 to 24 hrs followed by OA addition and measured after 6 hrs by Western blot analysis; type: cell-based
[15] = target: Glycogen synthase kinase-3 beta (Mus musculus) (UniProt Q9WV60); experiment: Inhibition of GSK3beta in mouse Neuro2a cells assessed as reduction in tau phosphorylation at S262 residues at 0.1 to 5 uM pretreated for 12 to 24 hrs followed by OA addition and measured after 6 hrs by Western blot analysis; type: cell-based
[16] = target: Glycogen synthase kinase-3 beta (Homo sapiens) (UniProt P49841); experiment: Inhibition of GSK3beta in human SH-SY5Y cells assessed as reduction in tau phosphorylation at S202/T205 residues at 0.1 to 5 uM pretreated for 12 to 24 hrs followed by OA addition and measured after 6 hrs by Western blot analysis; type: cell-based
[17] = target: Glycogen synthase kinase-3 beta (Homo sapiens) (UniProt P49841); experiment: Inhibition of GSK3beta in human SH-SY5Y cells assessed as reduction in tau phosphorylation at S262 residues at 0.1 to 5 uM pretreated for 12 to 24 hrs followed by OA addition and measured after 6 hrs by Western blot analysis; type: cell-based
N2a [18] = experiment: Effect on total tau protein level in mouse Neuro2a cells at 0.1 to 5 uM pretreated for 12 to 24 hrs followed by OA addition and measured after 6 hrs by Western blot analysis; type: cell-based
SH-SY5Y [19] = experiment: Effect on total tau protein level in human SH-SY5Y cells at 0.1 to 5 uM pretreated for 12 to 24 hrs followed by OA addition and measured after 6 hrs by Western blot analysis; type: ADME, cell-based
[20] = target: Glycogen synthase kinase-3 beta (Homo sapiens) (UniProt P49841); experiment: Inhibition of GSK-3beta in human SH-SY5Y cells harboring with pCAX/FLAG-tagged APP and pRK5/EGFP-tagged Tau P301L mutant at 0.1 to 10 uM assessed as reduction in GSK-3beta phosphorylation at Tyr216 residues after 24 hrs by Western blot analysis; type: cell-based
[21] = target: Glycogen synthase kinase-3 beta (Homo sapiens) (UniProt P49841); experiment: Inhibition of GSK-3beta in human SH-SY5Y cells harboring with pCAX/FLAG-tagged APP and pRK5/EGFP-tagged Tau P301L mutant at 0.1 to 10 uM assessed as increase in GSK-3beta phosphorylation at Ser9 residues after 24 hrs by Western blot analysis; type: cell-based
[22] = target: Glycogen synthase kinase-3 beta (Homo sapiens) (UniProt P49841); experiment: Inhibition of GSK-3beta in human SH-SY5Y cells assessed as increase in GSK-3beta phosphorylation at Ser9 residues at 0.1 to 5 uM pretreated for 24 hrs followed by OA addition and measured after 6 hrs by Western blot analysis; type: cell-based
SH-SY5Y [23] = experiment: Antioxidant activity in OA-induced human SH-SY5Y cells assessed as increase in MDA level at 0.1 to 1 uM pretreated for 12 hrs followed by OA addition and measured after 12 hrs; type: functional, cell-based
SH-SY5Y [24] = experiment: Antioxidant activity in OA-induced human SH-SY5Y cells assessed as decrease in GSH level at 0.1 to 1 uM pretreated for 12 hrs followed by OA addition and measured after 12 hrs; type: functional, cell-based
[25] = target: c-Jun N-terminal kinase, JNK (Homo sapiens) (UniProt P45983+P53779+P45984); experiment: Inhibition of JNK phosphorylation in OA-induced human SH-SY5Y cells pretreated for 24 hrs followed by OA addition and measured after 6 hrs by Western blot analysis; type: cell-based
SH-SY5Y [26] = experiment: Inhibition of ERK phosphorylation in OA-induced human SH-SY5Y cells pretreated for 24 hrs followed by OA addition and measured after 6 hrs by Western blot analysis; type: cell-based
[27] = target: MAP kinase p38 (Homo sapiens) (UniProt O15264+Q15759+Q16539+P53778); experiment: Inhibition of p38 phosphorylation in OA-induced human SH-SY5Y cells pretreated for 24 hrs followed by OA addition and measured after 6 hrs by Western blot analysis; type: cell-based
SH-SY5Y [28] = experiment: Inhibition of tau aggregation in OA-induced human SH-SY5Y cells at 0.1 to 5 uM pretreated for 24 hrs followed by OA addition and measured after 6 hrs by Western blot analysis; type: functional, cell-based
SH-SY5Y [29] = experiment: Effect on cell cycle arrest in OA-induced human SH-SY5Y cells assessed as accumulation at sub-G1 phase at 0.1 uM pretreated for 6 hrs followed by OA addition and measured after 16 hrs […] (reference value: 32.28%); type: functional
Mus musculus [30] = experiment: Anti-alzhemeric activity in scopolamine-induced ICR mouse assessed as increase in swimming distance at 25 to 100 mg/kg, ip for 2 weeks followed by scopolamine treatment and measured after 90 mins by Morris water maze test; type: functional, organism-based
Mus musculus [31] = experiment: Anti-alzhemeric activity in scopolamine-induced ICR mouse assessed as increase in time spent in the target quadrant at 25 to 100 mg/kg, ip for 2 weeks followed by scopolamine treatment and measured after 90 mins by Morris water maze test; type: functional, organism-based
Mus musculus [32] = experiment: Anti-alzhemeric activity in scopolamine-induced ICR mouse assessed as increase in swimming speed at 25 to 100 mg/kg, ip for 2 weeks followed by scopolamine treatment and measured after 90 mins by Morris water maze test; type: functional, organism-based
Mus musculus [33] = experiment: Reversal of scopolamine-induced spatial memory impairment in ICR mouse assessed as decrease in time spent on […] at 25 to 100 mg/kg, ip for 2 weeks followed by scopolamine treatment and measured after 90 mins by Morris water maze test; type: functional, organism-based
Mus musculus [34] = experiment: Anti-alzhemeric activity in scopolamine-induced ICR mouse assessed as inhibition of tau phosphorylation at S202/T205 residues in brain at 25 to 100 mg/kg, ip for 2 weeks followed by scopolamine treatment by Western blot analysis; type: functional, organism-based
Mus musculus [35] = experiment: Anti-alzhemeric activity in scopolamine-induced ICR mouse assessed as inhibition of tau phosphorylation at Ser262 residues in brain at 25 to 100 mg/kg, ip for 2 weeks followed by scopolamine treatment by Western blot analysis; type: functional, organism-based
Mus musculus [36] = experiment: Anti-alzhemeric activity in scopolamine-induced ICR mouse assessed as inhibition of tau phosphorylation at Ser396 residues in brain at 25 to 100 mg/kg, ip for 2 weeks followed by scopolamine treatment by Western blot analysis; type: functional, organism-based
Mus musculus [37] = experiment: Anti-alzhemeric activity in scopolamine-induced ICR mouse assessed as increase in GSK-3beta phosphorylation Ser9 residues in brain at 25 to 100 mg/kg, ip for 2 weeks followed by scopolamine treatment by Western blot analysis; type: functional, organism-based
Mus musculus [38] = experiment: Anti-alzhemeric activity in scopolamine-induced ICR mouse assessed as reduction in tau phosphorylation at S202/T205 residues in hippocampal CA1 region at 25 to 100 mg/kg, ip for 2 weeks followed by scopolamine treatment by immunohistochemistry-based analysis; type: functional, organism-based
Mus musculus [39] = experiment: Anti-alzhemeric activity in scopolamine-induced ICR mouse assessed as increase in GSK-3beta phosphorylation Ser9 residues in hippocampal CA1 region at 25 to 100 mg/kg, ip for 2 weeks followed by scopolamine treatment by immunohistochemistry-based analysis; type: functional, organism-based
[40] = Toxicity in ICR mouse assessed as effect on body weight at 25 to 100 mg/kg, ip for 2 weeks; type: organism-based; conditions: in vivo, 336 h
[41] = Toxicity in ICR mouse assessed as effect on body weight at 1 mg/kg, ip for 2 weeks; type: organism-based; conditions: in vivo, 336 h

COc1cc(CCc2cc(OC)c(O)c(OC)c2)ccc1O [MOSCATILIN]
inhibition [1]: Active
inhibition [2]: Active
IC50 (N2a [3]): > 20 µM
IC50 (N2a [4]): > 20 µM
IC50 (SH-SY5Y [5]): > 20 µM
IC50 (SH-SY5Y [6]): > 20 µM
inhibition [7]: Dose-dependent effect
inhibition [8]: Dose-dependent effect
inhibition [9]: Dose-dependent effect
inhibition [10]: Dose-dependent effect
Activity (N2a [11]): Non-Toxic
Activity (SH-SY5Y [12]): Non-Toxic
inhibition [13]: Active
inhibition [14]: Active
inhibition [15]: Active
inhibition [16]: Active
inhibition [17]: Active
Activity (N2a [18]): Non-Toxic
Activity (SH-SY5Y [19]): Non-Toxic
inhibition [20]: Active
inhibition [21]: Active
inhibition [22]: Active
Activity (SH-SY5Y [23]): Active
Activity (SH-SY5Y [24]): Active
inhibition [25]: Dose-dependent effect
inhibition (SH-SY5Y [26]): Dose-dependent effect
inhibition [27]: Dose-dependent effect
inhibition (SH-SY5Y [28]): Active
Activity (SH-SY5Y [29]): 20.81%
Activity (Mus musculus [30]): Active
Activity (Mus musculus [31]): Active
Activity (Mus musculus [32]): inactive
Activity (Mus musculus [33]): Active
Activity (Mus musculus [34]): Active
Activity (Mus musculus [35]): Active
Activity (Mus musculus [36]): Active
Activity (Mus musculus [37]): Active
Activity (Mus musculus [38]): Active
Activity (Mus musculus [39]): Active
Activity [40]: Non-Toxic
Activity [41]: Non-Toxic
